From the NIST ThermoML archive (doi:10.1016/j.fluid.2007.05.029)
± gives the expanded uncertainty stated by the source.

Experiment: xn = mol fraction of the nth substance listed

CCCCC(O)CO (configuration not stated) [1,2-hexanediol] + O
surface tension liquid-gas [mN/m]
Details | 283.15 K | 288.15 K | 293.15 K | 298.15 K | 303.15 K | 308.15 K
x1 = 0.001 | 55.1 ± 1 | 54.5 ± 1 | 54.3 ± 1 | 53.8 ± 1 | 53.3 ± 1 | 52.7 ± 0.9
x1 = 0.0016 | 47.5 ± 0.9 | 47.3 ± 0.9 | 47 ± 0.9 | 46.6 ± 0.9 | 46.3 ± 0.9 | 45.6 ± 0.9
x1 = 0.002 | 45.1 ± 0.9 | 44.5 ± 0.9 | 43.9 ± 0.9 | 43.4 ± 0.9 | 42.8 ± 0.9 | 42.3 ± 0.9
x1 = 0.0034 | 41.6 ± 0.9 | 40.6 ± 0.9 | 40 ± 0.9 | 39.3 ± 0.9 | 38.5 ± 0.9 | 38.1 ± 0.9
x1 = 0.0052 | 37.3 ± 0.9 | 36.3 ± 0.8 | 35.5 ± 0.8 | 34.7 ± 0.8 | 33.8 ± 0.8 | 33 ± 0.8
x1 = 0.0077 | 32.2 ± 0.8 | 31.4 ± 0.8 | 30.8 ± 0.8 | 30 ± 0.8 | 29.5 ± 0.8 | 28.9 ± 0.8
x1 = 0.0108 | 28.7 ± 0.8 | 28.1 ± 0.8 | 27.7 ± 0.8 | 27.2 ± 0.8 | 26.8 ± 0.8 | 26.4 ± 0.8
x1 = 0.014 | 27.6 ± 0.8 | 26.9 ± 0.8 | 26.3 ± 0.8 | 25.7 ± 0.8 | 25.2 ± 0.8 | 24.8 ± 0.8
x1 = 0.0175 | 26.4 ± 0.8 | 25.9 ± 0.8 | 25.7 ± 0.8 | 25.3 ± 0.8 | 24.8 ± 0.8 | 24.4 ± 0.8
x1 = 0.0251 | 26.2 ± 0.8 | 25.9 ± 0.8 | 25.5 ± 0.8 | 25.2 ± 0.8 | 25 ± 0.8 | 24.7 ± 0.8
x1 = 0.036 | 25.7 ± 0.8 | 25.5 ± 0.8 | 25.2 ± 0.8 | 25 ± 0.8 | 24.7 ± 0.8 | 24.5 ± 0.8
x1 = 0.046 | 25.7 ± 0.8 | 25.4 ± 0.8 | 25.2 ± 0.8 | 24.9 ± 0.8 | 24.7 ± 0.8 | 24.4 ± 0.8
x1 = 0.0514 | 25.7 ± 0.8 | 25.4 ± 0.8 | 25.2 ± 0.8 | 24.9 ± 0.8 | 24.7 ± 0.8 | 24.4 ± 0.8
x1 = 0.0655 | 25.6 ± 0.8 | 25.4 ± 0.8 | 25.1 ± 0.8 | 24.9 ± 0.8 | 24.4 ± 0.8 | 24.1 ± 0.8
x1 = 0.0831 | 25.6 ± 0.8 | 25.3 ± 0.8 | 25.1 ± 0.8 | 24.8 ± 0.8 | 24.5 ± 0.8 | 24.1 ± 0.8
x1 = 0.0968 | 25.1 ± 0.8 | 24.9 ± 0.8 | 24.6 ± 0.8 | 24.4 ± 0.8 | 24.3 ± 0.8 | 24 ± 0.8
x1 = 0.1119 | 24.9 ± 0.8 | 24.7 ± 0.8 | 24.4 ± 0.8 | 24.1 ± 0.8 | 23.9 ± 0.8 | 23.6 ± 0.8
x1 = 1 | 24.7 ± 0.8 | 24.4 ± 0.8 | 24.1 ± 0.8 | 23.8 ± 0.8 | 23.6 ± 0.8 | 23.3 ± 0.8

CC(O)CCCCO (configuration not stated) [1,5-hexanediol] + O
surface tension liquid-gas [mN/m]
Details | 283.15 K | 288.15 K | 293.15 K | 298.15 K | 303.15 K | 308.15 K
x1 = 0.001 | 65.3 ± 1 | 65 ± 1 | 63.8 ± 1 | 62.8 ± 1 | 62.3 ± 1 | 61.2 ± 1
x1 = 0.0021 | 58.3 ± 1 | 57.6 ± 1 | 56.9 ± 1 | 56.1 ± 1 | 55.7 ± 1 | 55 ± 1
x1 = 0.0037 | 55.3 ± 1 | 54.7 ± 1 | 54.2 ± 1 | 53.6 ± 1 | 52.9 ± 0.9 | 52.4 ± 0.9
x1 = 0.0053 | 53 ± 0.9 | 52.5 ± 0.9 | 51.7 ± 0.9 | 51.2 ± 0.9 | 50.6 ± 0.9 | 50.3 ± 0.9
x1 = 0.0071 | 51 ± 0.9 | 50.4 ± 0.9 | 49.9 ± 0.9 | 49.3 ± 0.9 | 48.8 ± 0.9 | 48.5 ± 0.9
x1 = 0.0089 | 50 ± 0.9 | 49.2 ± 0.9 | 48.6 ± 0.9 | 47.9 ± 0.9 | 47.3 ± 0.9 | 47 ± 0.9
x1 = 0.0111 | 47.5 ± 0.9 | 46.7 ± 0.9 | 46.4 ± 0.9 | 46 ± 0.9 | 45.7 ± 0.9 | 45 ± 0.9
x1 = 0.0145 | 45.3 ± 0.9 | 44.7 ± 0.9 | 44.5 ± 0.9 | 43.8 ± 0.9 | 43.4 ± 0.9 | 42.9 ± 0.9
x1 = 0.0194 | 43 ± 0.9 | 42.2 ± 0.9 | 41.3 ± 0.9 | 40.3 ± 0.9 | 39.8 ± 0.9 | 38.6 ± 0.9
x1 = 0.0324 | 39.7 ± 0.9 | 39.1 ± 0.9 | 38.6 ± 0.9 | 38 ± 0.9 | 37.5 ± 0.9 | 37 ± 0.8
x1 = 0.0507 | 38 ± 0.9 | 37.3 ± 0.9 | 36.9 ± 0.8 | 36.6 ± 0.8 | 35.7 ± 0.8 | 35 ± 0.8
x1 = 0.0738 | 36.9 ± 0.8 | 36.5 ± 0.8 | 36.1 ± 0.8 | 35.8 ± 0.8 | 34.9 ± 0.8 | 34.4 ± 0.8
x1 = 1 | 34.6 ± 0.9 | 34.3 ± 0.8 | 34.1 ± 0.8 | 33.9 ± 0.8 | 33.7 ± 0.8 | 33.5 ± 0.8

OCCCCCCO [1,6-hexanediol] + O
surface tension liquid-gas [mN/m]
Details | 283.15 K | 288.15 K | 293.15 K | 298.15 K | 303.15 K | 308.15 K
x1 = 0.0013 | 63.8 ± 1 | 63.1 ± 1 | 62.3 ± 1 | 62 ± 1 | 61.1 ± 1 | 60.6 ± 1
x1 = 0.0017 | 62.5 ± 1 | 61.8 ± 1 | 61.2 ± 1 | 60.4 ± 1 | 59.7 ± 1 | 58.8 ± 1
x1 = 0.0021 | 61.5 ± 1 | 60.7 ± 1 | 60.3 ± 1 | 59.4 ± 1 | 58.5 ± 1 | 57.6 ± 1
x1 = 0.0029 | 60 ± 1 | 59.2 ± 1 | 58.6 ± 1 | 57.5 ± 1 | 56.8 ± 1 | 56 ± 1
x1 = 0.0057 | 56.9 ± 1 | 55.7 ± 1 | 55 ± 1 | 53.8 ± 1 | 53.3 ± 1 | 52.4 ± 0.9
x1 = 0.007 | 55.1 ± 1 | 54.3 ± 1 | 53.4 ± 1 | 52.1 ± 0.9 | 51.7 ± 0.9 | 50.9 ± 0.9
x1 = 0.0089 | 53.3 ± 1 | 52.4 ± 0.9 | 51.4 ± 0.9 | 50.2 ± 0.9 | 50 ± 0.9 | 49.4 ± 0.9
x1 = 0.014 | 50.6 ± 0.9 | 49.4 ± 0.9 | 49.1 ± 0.9 | 48.3 ± 0.9 | 48.3 ± 0.9 | 47.2 ± 0.9
x1 = 0.0159 | 49.4 ± 0.9 | 48.6 ± 0.9 | 48 ± 0.9 | 47.5 ± 0.9 | 47 ± 0.9 | 46.6 ± 0.9
x1 = 0.0237 | 48.5 ± 0.9 | 47.6 ± 0.9 | 47 ± 0.9 | 46.5 ± 0.9 | 46.1 ± 0.9 | 45.8 ± 0.9
x1 = 0.0373 | 46.1 ± 0.9 | 45.7 ± 0.9 | 45.4 ± 0.9 | 45 ± 0.9 | 44.5 ± 0.9 | 44.2 ± 0.9
x1 = 0.0463 | 44.4 ± 0.9 | 44.1 ± 0.9 | 43.9 ± 0.9 | 43.6 ± 0.9 | 43.3 ± 0.9 | 43 ± 0.9
x1 = 0.0545 | 43.7 ± 0.9 | 43.4 ± 0.9 | 43.2 ± 0.9 | 42.9 ± 0.9 | 42.5 ± 0.9 | 42.2 ± 0.9
x1 = 0.0742 | 43.5 ± 0.9 | 43.3 ± 0.9 | 43 ± 0.9 | 42.8 ± 0.9 | 42.4 ± 0.9 | 42.1 ± 0.9
x1 = 0.098 | 43.4 ± 0.9 | 43.1 ± 0.9 | 42.9 ± 0.9 | 42.7 ± 0.9 | 42.4 ± 0.9 | 42.1 ± 0.9
x1 = 0.1165 | 43.4 ± 0.9 | 43.1 ± 0.9 | 42.8 ± 0.9 | 42.6 ± 0.9 | 42.3 ± 0.9 | 42 ± 0.9
